These results are taken from the NIST ThermoML archive (doi:10.1016/j.jct.2013.01.005).

Numbers after ± are expanded uncertainties.

The series in a line: activity coefficient (dimensionless); of the first substance listed, at infinite dilution; xn = mol fraction of the nth substance listed. To be noted: 101 kPa, Liquid, Chromatography, x1 = 0.

For the compound `CCCOCCC` [dipropyl ether] + CCCCCC[N+]1(C)CCCCC1.O=S(=O)([N-]S(=O)(=O)C(F)(F)F)C(F)(F)F, the activity coefficient runs as follows: (308.15 K) 3.5 ± 0.24; (318.15 K) 3.47 ± 0.24; (328.15 K) 3.44 ± 0.23; (338.15 K) 3.41 ± 0.23; (348.15 K) 3.38 ± 0.23; (358.15 K) 3.37 ± 0.23.

In the case of `CC(C)CC(C)(C)C` [2,2,4-trimethylpentane] + CCCCCC[N+]1(C)CCCCC1.O=S(=O)([N-]S(=O)(=O)C(F)(F)F)C(F)(F)F, the activity coefficient reads like this: (308.15 K) 9.75 ± 0.67; (318.15 K) 9.59 ± 0.65; (328.15 K) 9.2 ± 0.63; (338.15 K) 8.95 ± 0.61; (348.15 K) 8.59 ± 0.59; (358.15 K) 8.43 ± 0.58.

With `c1ccccc1` [benzene] + CCCCCC[N+]1(C)CCCCC1.O=S(=O)([N-]S(=O)(=O)C(F)(F)F)C(F)(F)F, the activity coefficient stood at 0.669 ± 0.045 (308.15 K); 0.687 ± 0.046 (318.15 K); 0.695 ± 0.047 (328.15 K); 0.71 ± 0.047 (338.15 K); 0.722 ± 0.048 (348.15 K); 0.73 ± 0.048 (358.15 K).

Consider `C=CCCCCCCCC` [1-decene] + CCCCC[N+]1(C)CCCCC1.O=S(=O)([N-]S(=O)(=O)C(F)(F)F)C(F)(F)F, for which the activity coefficient amounted to 17.1 ± 1.2 (308.15 K); 16.5 ± 1.1 (318.15 K); 15.9 ± 1.1 (328.15 K); 15.5 ± 1.1 (338.15 K); 15.3 ± 1 (348.15 K); 14.6 ± 1 (358.15 K).

`C#CCCCCCC` [1-octyne] + CCCCC[N+]1(C)CCCCC1.O=S(=O)([N-]S(=O)(=O)C(F)(F)F)C(F)(F)F: the activity coefficient runs as follows: (308.15 K) 3.71 ± 0.25; (318.15 K) 3.74 ± 0.25; (328.15 K) 3.76 ± 0.26; (338.15 K) 3.79 ± 0.26; (348.15 K) 3.81 ± 0.26; (358.15 K) 3.84 ± 0.26.

Take `C1CCCCC1` [cyclohexane] + CCCCCC[N+]1(C)CCCCC1.O=S(=O)([N-]S(=O)(=O)C(F)(F)F)C(F)(F)F: the activity coefficient amounted to 4.99 ± 0.34 (308.15 K); 4.8 ± 0.33 (318.15 K); 4.6 ± 0.31 (328.15 K); 4.43 ± 0.3 (338.15 K); 4.28 ± 0.29 (348.15 K); 4.06 ± 0.28 (358.15 K).

For `C1CCCC1` [cyclopentane] + CCCCC[N+]1(C)CCCCC1.O=S(=O)([N-]S(=O)(=O)C(F)(F)F)C(F)(F)F, the activity coefficient (308.15 K) was 4.72 ± 0.32; the activity coefficient (318.15 K) was found to be 4.5 ± 0.31; the activity coefficient (328.15 K) came out at 4.24 ± 0.29; the activity coefficient (338.15 K) was determined as 3.98 ± 0.27; the activity coefficient (348.15 K) was 3.82 ± 0.26; the activity coefficient (358.15 K) is 3.72 ± 0.25.

With `C=CCCCCCC` [oct-1-ene] + CCCCCC[N+]1(C)CCCCC1.O=S(=O)([N-]S(=O)(=O)C(F)(F)F)C(F)(F)F, the activity coefficient (308.15 K) is 7.72 ± 0.53; the activity coefficient (318.15 K) turned out to be 7.6 ± 0.52; the activity coefficient (328.15 K) came out at 7.49 ± 0.51; the activity coefficient (338.15 K) was found to be 7.37 ± 0.5; the activity coefficient (348.15 K) turned out to be 7.27 ± 0.5; the activity coefficient (358.15 K) worked out at 7.2 ± 0.49.

`CCc1ccccc1` [ethylbenzene] + CCCCC[N+]1(C)CCCCC1.O=S(=O)([N-]S(=O)(=O)C(F)(F)F)C(F)(F)F: the activity coefficient runs as follows: (308.15 K) 1.26 ± 0.08; (318.15 K) 1.31 ± 0.09; (328.15 K) 1.35 ± 0.09; (338.15 K) 1.37 ± 0.09; (348.15 K) 1.42 ± 0.09; (358.15 K) 1.43 ± 0.09.

On to `COC(C)(C)C` [2-methoxy-2-methylpropane] + CCCCC[N+]1(C)CCCCC1.O=S(=O)([N-]S(=O)(=O)C(F)(F)F)C(F)(F)F, for which the activity coefficient reads like this: (308.15 K) 1.81 ± 0.12; (318.15 K) 1.85 ± 0.12; (328.15 K) 1.86 ± 0.13; (338.15 K) 1.89 ± 0.13; (348.15 K) 1.94 ± 0.13; (358.15 K) 1.98 ± 0.13.

As to `O` [water] + CCCCC[N+]1(C)CCCCC1.O=S(=O)([N-]S(=O)(=O)C(F)(F)F)C(F)(F)F, the activity coefficient (308.15 K) is 5.05 ± 0.34; the activity coefficient (318.15 K) was found to be 4.19 ± 0.29; the activity coefficient (328.15 K) came out at 3.7 ± 0.25; the activity coefficient (338.15 K) was determined as 3.18 ± 0.22; the activity coefficient (348.15 K) was determined as 2.78 ± 0.19; the activity coefficient (358.15 K) was determined as 2.44 ± 0.17.

As for `CCO` [ethanol] + CCCCCC[N+]1(C)CCCCC1.O=S(=O)([N-]S(=O)(=O)C(F)(F)F)C(F)(F)F, the activity coefficient reads like this: (308.15 K) 1.81 ± 0.12; (318.15 K) 1.63 ± 0.11; (328.15 K) 1.49 ± 0.1; (338.15 K) 1.37 ± 0.09; (348.15 K) 1.27 ± 0.08; (358.15 K) 1.18 ± 0.08.

`C=CCCCCCC` [oct-1-ene] + CCCCC[N+]1(C)CCCCC1.O=S(=O)([N-]S(=O)(=O)C(F)(F)F)C(F)(F)F: the activity coefficient is, setting by setting: (308.15 K) 9.9 ± 0.68; (318.15 K) 9.65 ± 0.66; (328.15 K) 9.28 ± 0.63; (338.15 K) 8.94 ± 0.61; (348.15 K) 8.77 ± 0.6; (358.15 K) 8.47 ± 0.58.

In the case of `Cc1ccc(C)cc1` [1,4-dimethylbenzene] + CCCCC[N+]1(C)CCCCC1.O=S(=O)([N-]S(=O)(=O)C(F)(F)F)C(F)(F)F, the activity coefficient by setting is: (308.15 K) 1.16 ± 0.07; (318.15 K) 1.24 ± 0.08; (328.15 K) 1.28 ± 0.08; (338.15 K) 1.32 ± 0.09; (348.15 K) 1.37 ± 0.09; (358.15 K) 1.4 ± 0.09.

`CCCCCCCCCC` [decane] + CCCCCC[N+]1(C)CCCCC1.O=S(=O)([N-]S(=O)(=O)C(F)(F)F)C(F)(F)F: the activity coefficient reads like this: (308.15 K) 23.5 ± 1.6; (318.15 K) 22.2 ± 1.5; (328.15 K) 21.1 ± 1.4; (338.15 K) 20 ± 1.4; (348.15 K) 19.1 ± 1.3; (358.15 K) 18.3 ± 1.3.

Consider `C#CCCCC` [1-hexyne] + CCCCCC[N+]1(C)CCCCC1.O=S(=O)([N-]S(=O)(=O)C(F)(F)F)C(F)(F)F, for which the activity coefficient by setting is: (308.15 K) 1.85 ± 0.12; (318.15 K) 1.88 ± 0.13; (328.15 K) 1.92 ± 0.13; (338.15 K) 1.93 ± 0.13; (348.15 K) 1.96 ± 0.13; (358.15 K) 1.98 ± 0.13.

On to `Cc1ccccc1` [toluene] + CCCCCC[N+]1(C)CCCCC1.O=S(=O)([N-]S(=O)(=O)C(F)(F)F)C(F)(F)F, for which the activity coefficient stood at 0.864 ± 0.055 (308.15 K); 0.894 ± 0.057 (318.15 K); 0.909 ± 0.058 (328.15 K); 0.934 ± 0.059 (338.15 K); 0.957 ± 0.06 (348.15 K); 0.969 ± 0.061 (358.15 K).

Take `CCc1ccccc1` [ethylbenzene] + CCCCCC[N+]1(C)CCCCC1.O=S(=O)([N-]S(=O)(=O)C(F)(F)F)C(F)(F)F: the activity coefficient (308.15 K) amounted to 0.864 ± 0.055; the activity coefficient (318.15 K) was 0.894 ± 0.057; the activity coefficient (328.15 K) was determined as 0.909 ± 0.058; the activity coefficient (338.15 K) was found to be 0.934 ± 0.059; the activity coefficient (348.15 K) was determined as 0.957 ± 0.06; the activity coefficient (358.15 K) was 0.969 ± 0.061.

In the case of `CCCO` [propan-1-ol] + CCCCC[N+]1(C)CCCCC1.O=S(=O)([N-]S(=O)(=O)C(F)(F)F)C(F)(F)F, the activity coefficient runs as follows: (308.15 K) 2.05 ± 0.14; (318.15 K) 1.82 ± 0.12; (328.15 K) 1.68 ± 0.11; (338.15 K) 1.55 ± 0.1; (348.15 K) 1.46 ± 0.1; (358.15 K) 1.36 ± 0.09.

`CCO` [ethanol] + CCCCC[N+]1(C)CCCCC1.O=S(=O)([N-]S(=O)(=O)C(F)(F)F)C(F)(F)F: the activity coefficient by setting is: (308.15 K) 1.79 ± 0.12; (318.15 K) 1.58 ± 0.1; (328.15 K) 1.46 ± 0.1; (338.15 K) 1.35 ± 0.09; (348.15 K) 1.27 ± 0.08; (358.15 K) 1.18 ± 0.08.
